The source of these data is paper PMC5218480 (PLoS ONE, 2017).

In the assay the test system is MV-4-11 cells. Nature of the assay: Gene expression microarray analysis (Affymetrix PrimeView) and GSEA. The format is cell-based, human. Also on record: RFU PODN (11730768_x_at) / Fold change /veh PODN (11730768_x_at) / RFU LINC00158 (11744669_a_at) / Fold change /veh LINC00158 (11744669_a_at) / RFU DUSP10 (11751237_a_at) / Fold change /veh DUSP10 (11751237_a_at) / RFU ID3 (11757404_x_at) / Fold change /veh ID3 (11757404_x_at) / RFU PLEKHG5 (11737974_s_at) / Fold change /veh PLEKHG5 (11737974_s_at) / RFU LRRC4B (11730491_at) / Fold change /veh LRRC4B (11730491_at) / RFU GIMAP4 (11747438_a_at) / Fold change /veh GIMAP4 (11747438_a_at) / RFU KRT8 (11758183_x_at) / Fold change /veh KRT8 (11758183_x_at) / RFU CNN1 (11734310_a_at) / Fold change /veh CNN1 (11734310_a_at) / RFU VPS37D (11726825_at) / Fold change /veh VPS37D (11726825_at) / RFU C10orf10 (11716522_x_at) / Fold change /veh C10orf10 (11716522_x_at) / RFU KIR2DL2 /// KIR2DL4 /// KIR2DL5A /// KIR2DL5B /// KIR2DS1 /// KIR2DS2 /// KIR2DS3 /// KIR2DS4 /// KIR3DL3 /// KIR3DL3 /// KIR3DS1 (11738374_at) / Fold change /veh KIR2DL2 /// KIR2DL4 /// KIR2DL5A /// KIR2DL5B /// KIR2DS1 /// KIR2DS2 /// KIR2DS3 /// KIR2DS4 /// KIR3DL3 /// KIR3DL3 /// KIR3DS1 (11738374_at) / RFU C1QL1 (11718748_at) / Fold change /veh C1QL1 (11718748_at) / RFU TMPRSS4 (11747572_a_at) / Fold change /veh TMPRSS4 (11747572_a_at) / RFU HAMP (11756126_x_at) / Fold change /veh HAMP (11756126_x_at) / RFU RNFT2 (11725882_a_at) / Fold change /veh RNFT2 (11725882_a_at) / RFU NR4A2 (11747474_a_at) / Fold change /veh NR4A2 (11747474_a_at) / RFU ABCC12 (11746883_a_at) / Fold change /veh ABCC12 (11746883_a_at) / RFU TMEM136 (11760407_x_at) / Fold change /veh TMEM136 (11760407_x_at) / RFU CLDN22 /// WWC2 (11732394_at) / Fold change /veh CLDN22 /// WWC2 (11732394_at) / RFU HLA-DPB1 (11760878_x_at) / Fold change /veh HLA-DPB1 (11760878_x_at) / RFU SPINT1 (11716480_a_at) / Fold change /veh SPINT1 (11716480_a_at) / RFU GAP43 (11754022_s_at) / Fold change /veh GAP43 (11754022_s_at) / RFU A4GNT (11735810_at) / Fold change /veh A4GNT (11735810_at) / RFU PRB3 (11715151_x_at) / Fold change /veh PRB3 (11715151_x_at) / RFU TUBB4B (11761932_at) / Fold change /veh TUBB4B (11761932_at) / RFU CAPN14 (11732068_a_at) / Fold change /veh CAPN14 (11732068_a_at) / RFU TMCC2 (11721928_a_at) / Fold change /veh TMCC2 (11721928_a_at) / RFU IRGQ (11745062_a_at) / Fold change /veh IRGQ (11745062_a_at) / RFU FAM174B (11720279_a_at) / Fold change /veh FAM174B (11720279_a_at) / RFU TMPRSS4 (11748680_a_at) / Fold change /veh TMPRSS4 (11748680_a_at) / RFU FAM212B (11763350_a_at) / Fold change /veh FAM212B (11763350_a_at) / RFU PLEKHG5 (11743358_a_at) / Fold change /veh PLEKHG5 (11743358_a_at) / RFU ZSCAN30 (11745921_a_at) / Fold change /veh ZSCAN30 (11745921_a_at) / RFU CMKLR1 (11741424_a_at) / Fold change /veh CMKLR1 (11741424_a_at) / RFU LOC101060620 /// MAPK8IP1 (11723275_at) / Fold change /veh LOC101060620 /// MAPK8IP1 (11723275_at) / RFU SPTSSB (11747773_x_at) / Fold change /veh SPTSSB (11747773_x_at) / RFU PRSS12 (11739890_at) / Fold change /veh PRSS12 (11739890_at) / RFU BIN1 (11741810_x_at) / Fold change /veh BIN1 (11741810_x_at) / RFU WNT11 (11732464_a_at) / Fold change /veh WNT11 (11732464_a_at) / RFU C10orf10 (11716521_a_at) / Fold change /veh C10orf10 (11716521_a_at) / RFU C5orf56 (11738089_at) / Fold change /veh C5orf56 (11738089_at) / RFU CYB561 (11721691_x_at) / Fold change /veh CYB561 (11721691_x_at) / RFU ANKRD19P (11752326_a_at) / Fold change /veh ANKRD19P (11752326_a_at) / RFU OR2T12 /// OR2T33 /// OR2T8 (11738714_s_at) / Fold change /veh OR2T12 /// OR2T33 /// OR2T8 (11738714_s_at) / RFU VCAN (11748164_a_at) / Fold change /veh VCAN (11748164_a_at) / RFU JSRP1 (11732532_at) / Fold change /veh JSRP1 (11732532_at) / RFU KRTAP10-11 (11738290_x_at) / Fold change /veh KRTAP10-11 (11738290_x_at) / RFU MYO3A (11730013_a_at) / Fold change /veh MYO3A (11730013_a_at) / RFU EBF3 (11725865_a_at) / Fold change /veh EBF3 (11725865_a_at) / RFU CAMK2N1 (11719241_x_at) / Fold change /veh CAMK2N1 (11719241_x_at) / RFU C5orf56 (11738088_a_at) / Fold change /veh C5orf56 (11738088_a_at) / RFU OLFML3 (11715873_a_at) / Fold change /veh OLFML3 (11715873_a_at) / RFU LOC100653217 /// NTM (11731650_a_at) / Fold change /veh LOC100653217 /// NTM (11731650_a_at) / RFU MAPK11 (11762145_a_at) / Fold change /veh MAPK11 (11762145_a_at) / RFU FIZ1 (11724087_x_at) / Fold change /veh FIZ1 (11724087_x_at) / RFU OASL (11726364_x_at) / Fold change /veh OASL (11726364_x_at) / RFU SOX15 (11748057_x_at) / Fold change /veh SOX15 (11748057_x_at) / RFU CD79A (11719716_a_at) / Fold change /veh CD79A (11719716_a_at) / RFU HIST1H1D (11736915_at) / Fold change /veh HIST1H1D (11736915_at) / RFU CASKIN2 (11723855_a_at) / Fold change /veh CASKIN2 (11723855_a_at) / RFU LOC730098 (11760151_x_at) / Fold change /veh LOC730098 (11760151_x_at) / RFU OR4N2 (11742367_at) / Fold change /veh OR4N2 (11742367_at) / RFU PRRT2 (11749266_a_at) / Fold change /veh PRRT2 (11749266_a_at) / RFU SNX32 (11753110_a_at) / Fold change /veh SNX32 (11753110_a_at) / RFU CDHR5 (11726645_a_at) / Fold change /veh CDHR5 (11726645_a_at) / RFU RCAN1 (11760418_a_at) / Fold change /veh RCAN1 (11760418_a_at) / RFU FAM167A (11723789_a_at) / Fold change /veh FAM167A (11723789_a_at) / RFU FAM26E (11764081_at) / Fold change /veh FAM26E (11764081_at) / RFU ISYNA1 (11749810_s_at) / Fold change /veh ISYNA1 (11749810_s_at) / RFU ACY1 (11761880_at) / Fold change /veh ACY1 (11761880_at) / RFU 11764098_at / Fold change /veh 11764098_at / RFU SAMD14 (11745864_x_at) / Fold change /veh SAMD14 (11745864_x_at) / RFU NPB (11741838_a_at) / Fold change /veh NPB (11741838_a_at) / RFU TMPRSS6 (11731388_a_at) / Fold change /veh TMPRSS6 (11731388_a_at) / RFU KRTAP10-2 (11738614_at) / Fold change /veh KRTAP10-2 (11738614_at) / RFU ARHGAP8 /// PRR5-ARHGAP8 (11727945_x_at) / Fold change /veh ARHGAP8 /// PRR5-ARHGAP8 (11727945_x_at) / RFU KRTAP5-7 /// NADSYN1 (11734609_at) / Fold change /veh KRTAP5-7 /// NADSYN1 (11734609_at) / RFU RASL12 (11751679_a_at) / Fold change /veh RASL12 (11751679_a_at) / RFU CDKN2B (11736163_a_at) / Fold change /veh CDKN2B (11736163_a_at) / RFU PRF1 (11729649_at) / Fold change /veh PRF1 (11729649_at) / RFU, ZNF638 /// ZNF638-IT1 / Fold change vs veh, ZNF638 /// ZNF638-IT1 / RFU, PANK3 / Fold change vs veh, PANK3 / RFU, SH3YL1 / Fold change vs veh, SH3YL1 / RFU, ZEB2 / Fold change vs veh, ZEB2 / RFU, NRIP1 / Fold change vs veh, NRIP1 / RFU, PTTG1IP / Fold change vs veh, PTTG1IP / RFU, CAPN2 / Fold change vs veh, CAPN2 / RFU, MED14 / Fold change vs veh, MED14 / RFU, SNORA58 / Fold change vs veh, SNORA58 / RFU, C1orf63 / Fold change vs veh, C1orf63 / RFU, LRRFIP1 / Fold change vs veh, LRRFIP1 / RFU, NDUFAF7 / Fold change vs veh, NDUFAF7 / RFU, SLC12A2 / Fold change vs veh, SLC12A2 / RFU, IBTK / Fold change vs veh, IBTK / RFU, ESF1 / Fold change vs veh, ESF1 / Fold change vs veh, TMEM50B / RFU, TAOK1 / Fold change vs veh, TAOK1 / RFU, ACBD3 / Fold change vs veh, ACBD3 / RFU, TMA16 / Fold change vs veh, TMA16 / RFU, RWDD3 / Fold change vs veh, RWDD3 / RFU, BCAT1 / Fold change vs veh, BCAT1 / RFU, EDEM3 / Fold change vs veh, EDEM3 / RFU, TMEM33 / Fold change vs veh, TMEM33 / RFU, WDR75 / Fold change vs veh, WDR75 / RFU, AHCTF1 / Fold change vs veh, AHCTF1 / RFU, TFRC / Fold change vs veh, TFRC / RFU, ZDHHC17 / Fold change vs veh, ZDHHC17 / RFU, NOM1 / Fold change vs veh, NOM1 / RFU, ARL8B / Fold change vs veh, ARL8B / RFU, ZBTB11 / Fold change vs veh, ZBTB11 / RFU, TAMM41 / Fold change vs veh, TAMM41 / RFU, KIAA1704 /// LOC100996395 / Fold change vs veh, KIAA1704 /// LOC100996395 / RFU, ING1 / Fold change vs veh, ING1 / RFU, TRMT61B / Fold change vs veh, TRMT61B / RFU, FUBP3 / Fold change vs veh, FUBP3 / RFU, TP53 / Fold change vs veh, TP53 / RFU, TNKS2 / Fold change vs veh, TNKS2 / RFU, ZFP14 / Fold change vs veh, ZFP14 / RFU, ACTR2 / Fold change vs veh, ACTR2 / RFU, PPP3R1 / Fold change vs veh, PPP3R1 / RFU, PIK3R1 / Fold change vs veh, PIK3R1 / RFU, HNRNPA1 / Fold change vs veh, HNRNPA1 / RFU, RNF170 / Fold change vs veh, RNF170 / RFU, ZNF28 / Fold change vs veh, ZNF28 / RFU, RNGTT / Fold change vs veh, RNGTT / RFU, OGT / Fold change vs veh, OGT / RFU, BRD1 / Fold change vs veh, BRD1 / RFU, MARS / Fold change vs veh, MARS / RFU, ZNF655 / Fold change vs veh, ZNF655 / RFU, FAHD1 / Fold change vs veh, FAHD1 / RFU, BDP1 / Fold change vs veh, BDP1 / RFU, LRRCC1 / Fold change vs veh, LRRCC1 / RFU, ARID1A / Fold change vs veh, ARID1A / RFU, ZNF146 / Fold change vs veh, ZNF146 / RFU, ZNF330 / Fold change vs veh, ZNF330 / RFU, GPN3 / Fold change vs veh, GPN3 / RFU, C9orf123 / Fold change vs veh, C9orf123 / RFU, N4BP2L2 / Fold change vs veh, N4BP2L2 / RFU, ARFIP1 / Fold change vs veh, ARFIP1 / RFU, FAM179B / Fold change vs veh, FAM179B / RFU, BCL10 / Fold change vs veh, BCL10 / RFU, UHRF1BP1L / Fold change vs veh, UHRF1BP1L / RFU, BET1 / Fold change vs veh, BET1 / RFU, CNOT2 / Fold change vs veh, CNOT2 / RFU, ZNF268 / Fold change vs veh, ZNF268 / Fold change vs veh, ZNF507 / RFU, DGCR2 / Fold change vs veh, DGCR2 / RFU, WDSUB1 / Fold change vs veh, WDSUB1 / Fold change vs veh, HSP90B1 /// MIR3652 / RFU, ADSS / Fold change vs veh, ADSS / RFU, GK / Fold change vs veh, GK / RFU, ZNF148 / Fold change vs veh, ZNF148 / RFU, TAF9 / Fold change vs veh, TAF9 / RFU, SLC1A5 / Fold change vs veh, SLC1A5 / RFU, SLMO2 / Fold change vs veh, SLMO2 / RFU, ABCC4 / Fold change vs veh, ABCC4 / RFU, LOC101060439 /// RAP1B / Fold change vs veh, LOC101060439 /// RAP1B / RFU, RFX7 / Fold change vs veh, RFX7 / RFU, GTPBP10 / Fold change vs veh, GTPBP10 / RFU, CNEP1R1 / Fold change vs veh, CNEP1R1 / RFU, BIVM-ERCC5 /// ERCC5 / Fold change vs veh, BIVM-ERCC5 /// ERCC5 / RFU, ILF3 / Fold change vs veh, ILF3 / RFU 11762660_at / Fold change /veh 11762660_at / RFU VCAN (11757783_s_at) / Fold change /veh VCAN (11757783_s_at) / RFU DDX43 (11728927_at) / Fold change /veh DDX43 (11728927_at) / RFU KRT8 (11758188_x_at) / Fold change /veh KRT8 (11758188_x_at) / RFU NKD1 (11759106_at) / Fold change /veh NKD1 (11759106_at) / RFU SRD5A1 (11742802_a_at) / Fold change /veh SRD5A1 (11742802_a_at) / RFU TPSAB1 /// TPSB2 (11721975_s_at) / Fold change /veh TPSAB1 /// TPSB2 (11721975_s_at) / RFU GSTM3 (11746129_a_at) / Fold change /veh GSTM3 (11746129_a_at) / RFU IL23R (11737362_x_at) / Fold change /veh IL23R (11737362_x_at) / RFU TMEM51 (11727254_a_at) / Fold change /veh TMEM51 (11727254_a_at) / RFU PIWIL2 (11732686_x_at) / Fold change /veh PIWIL2 (11732686_x_at) / RFU ORM1 (11744905_x_at) / Fold change /veh ORM1 (11744905_x_at) / RFU CCDC152 (11743942_at) / Fold change /veh CCDC152 (11743942_at) / RFU ECM1 (11717891_a_at) / Fold change /veh ECM1 (11717891_a_at) / RFU IL23R (11748794_a_at) / Fold change /veh IL23R (11748794_a_at) / RFU TNFAIP8L3 (11732012_x_at) / Fold change /veh TNFAIP8L3 (11732012_x_at) / RFU MBOAT4 (11741988_at) / Fold change /veh MBOAT4 (11741988_at) / RFU 11764193_at / Fold change /veh 11764193_at / RFU TMEM53 (11763286_at) / Fold change /veh TMEM53 (11763286_at) / RFU MAGEB2 (11727129_at) / Fold change /veh MAGEB2 (11727129_at) / RFU TMEM200A (11744735_a_at) / Fold change /veh TMEM200A (11744735_a_at) / RFU CCDC152 (11751479_a_at) / Fold change /veh CCDC152 (11751479_a_at) / RFU FAM211A (11726209_a_at) / Fold change /veh FAM211A (11726209_a_at) / RFU RGS16 (11746705_a_at) / Fold change /veh RGS16 (11746705_a_at) / RFU VCAN (11755009_s_at) / Fold change /veh VCAN (11755009_s_at) / RFU RHOB (11743442_s_at) / Fold change /veh RHOB (11743442_s_at) / RFU RGS16 (11720943_a_at) / Fold change /veh RGS16 (11720943_a_at) / RFU RGS16 (11720944_at) / Fold change /veh RGS16 (11720944_at) / RFU, VPS4B / Fold change vs veh, VPS4B / RFU, CREB1 / Fold change vs veh, CREB1 / RFU, DNAJC13 / Fold change vs veh, DNAJC13 / RFU, GNAQ / Fold change vs veh, GNAQ / RFU, CDK5R1 / Fold change vs veh, CDK5R1 / RFU, ZRANB3 / Fold change vs veh, ZRANB3 / RFU, CUL4A / Fold change vs veh, CUL4A / RFU, CCNY / Fold change vs veh, CCNY / RFU, UFL1 / Fold change vs veh, UFL1 / RFU, COG3 / Fold change vs veh, COG3 / RFU, DIAPH2 / Fold change vs veh, DIAPH2 / RFU, SKA2 / Fold change vs veh, SKA2 / RFU, AFF3 / Fold change vs veh, AFF3 / RFU, LMF1 / Fold change vs veh, LMF1 / RFU, IPO11 / Fold change vs veh, IPO11 / RFU, DFFB / Fold change vs veh, DFFB / RFU, FOXP1 / Fold change vs veh, FOXP1 / RFU, CARD8 / Fold change vs veh, CARD8 / RFU, STRN3 / Fold change vs veh, STRN3 / RFU, ADK / Fold change vs veh, ADK / RFU, RASSF2 / Fold change vs veh, RASSF2 / RFU, WIPF1 / Fold change vs veh, WIPF1 / RFU, LARP1B / Fold change vs veh, LARP1B / RFU, RASA1 / Fold change vs veh, RASA1 / RFU, RB1 / Fold change vs veh, RB1 / RFU, PPFIA1 / Fold change vs veh, PPFIA1 / RFU, MAT2A / Fold change vs veh, MAT2A / RFU, CCT5 / Fold change vs veh, CCT5 / RFU, WDR92 / Fold change vs veh, WDR92 / RFU, CUX1 / Fold change vs veh, CUX1 / RFU, TTC7A / Fold change vs veh, TTC7A / RFU, TMEM135 / Fold change vs veh, TMEM135 / RFU, DEPTOR / Fold change vs veh, DEPTOR / RFU, CPM / Fold change vs veh, CPM / RFU, DNAJB6 / Fold change vs veh, DNAJB6 / RFU, CACNA2D3 / Fold change vs veh, CACNA2D3 / RFU, DTX4 / Fold change vs veh, DTX4 / RFU, TFCP2 / Fold change vs veh, TFCP2 / RFU, GMCL1 /// GMCL1P1 / Fold change vs veh, GMCL1 /// GMCL1P1 / RFU, AEBP2 / Fold change vs veh, AEBP2 / RFU, SNHG1 /// SNORD22 /// SNORD25 /// SNORD26 /// SNORD27 /// SNORD28 /// SNORD29 /// SNORD31 / Fold change vs veh, SNHG1 /// SNORD22 /// SNORD25 /// SNORD26 /// SNORD27 /// SNORD28 /// SNORD29 /// SNORD31 / Fold change (Aza/veh), C12orf56 (ProbeSet 11735607_a_at) / Fold change (ACY-1035/veh), C12orf56 (ProbeSet 11735607_a_at) / Fold change (Aza/veh), FGFR1OP (ProbeSet 11751329_s_at) / Fold change (ACY-1035/veh), FGFR1OP (ProbeSet 11751329_s_at) / Fold change (Aza/veh), VPS36 (ProbeSet 11739960_a_at) / Fold change (ACY-1035/veh), VPS36 (ProbeSet 11739960_a_at) / RFU SYPL1 (11715823_x_at) / Fold change /veh SYPL1 (11715823_x_at) / RFU IGFBP7 (11715501_s_at) / Fold change /veh IGFBP7 (11715501_s_at) / RFU REEP3 (11722064_at) / Fold change /veh REEP3 (11722064_at) / RFU IGLL1 (11728026_x_at) / Fold change /veh IGLL1 (11728026_x_at): dose or concentration left out as unconfirmed. Particulars: ProbeSet 11743510_at; LIST D.

On to `Nc1ccc(-c2cccs2)cc1NC(=O)c1ccc2c(c1)cc(C1CC1)n2CCN1CCOCC1` [ACY-1035], for which the “Fold change vs veh, UFL1” value is given as 0.85.
